Here are results for three molecules from ChEMBL document CHEMBL1152417, “The identification and optimisation of novel and selective diamide neuropeptide Y Y2 receptor antagonists” (Bioorg Med Chem Lett, 2009).

SMILES strings stand for the structures.

The data set concerns Brain. Nature of the data set: Drug level in rat brain assessed as tissue binding. In kind it is ADME, tissue-based.

Take `O=C(Cc1ccccc1)Nc1ccc(N2CCN(C(=O)c3ccccc3)CC2)c(Cl)c1`: the “Brain tissue binding (percent bound)” value came to 99%.
The result for `CC(C)(C(=O)Nc1ccc(N2CCN(C(=O)c3ccccc3)CC2)c(Cl)c1)c1ccccc1` reads 99.5%; that for `O=C(Nc1ccc(N2CCN(C(=O)c3ccccc3)CC2)c(Cl)c1)C(c1ccccc1)c1ccccn1` (racemic), 99.7%.
